Reference: patent publication US10731222B2 (RNA Diagnostics Inc., priority 2013, dated 2020)
“Also recorded” adds a separate entry of the source.

Key:
[1] = system: docetaxel-resistant A2780DXL cells; assay: Clonogenic assay, docetaxel-resistant cells; format: cell-based; conditions: 50% of colony formation suppressed
Description: (§1) A docetaxel A2780 resistant cell line was made as described in Li et al., Int. J. Mol. Med 2004 14(20): 257-264.
(§2) RDA like clonogenic assays can be used to identify drugs that are cytotoxic (FIG. 24C iv). […] The cell lines have widely differing sensitivity to docetaxel in a clonogenic assay, with IC50 values differing by over three orders of magnitude.

parental A2780 cells = assay: Clonogenic assay, drug-sensitive parental cells; format: cell-based; conditions: Homo sapiens, 50% of colony formation suppressed
Description: as §2

[2] = system: CaOV3 ovarian tumour cell line; assay: Docetaxel-induced RNA disruption, CaOV3; format: cell-based
[3] = system: docetaxel-resistant A2780DXL cells; assay: RNA disruption in docetaxel-resistant cells; format: cell-based; conditions: docetaxel treatment
Method: as §1
A time course experiment was conducted. Sensitive parental and docetaxel resistant A2780 cells were treated with docetaxel for 24 hours. RNA was isolated and run on an Agilent Bioanalyzer.
The a\Ability of RDA to detect potentiators of docetaxel (Dxl) sensitivity. […] Thus, RDA may be used to screen for potentiators of chemotherapy drug cytotoxicity.

[4] = system: A2780 ovarian tumour cell line; assay: Apoptosis markers in drug-treated cells (Annexin V-FITC, DNA content, PARP cleavage, caspase activity); format: cell-based, human
Method: Various cell lines were treated with anti-cancer agents and the effects of these treatments on the cellular RNA banding pattern, Annexin V-FITC binding to cells, cellular DNA content, poly ADP ribose polymerase (PARP) cleavage, and cell proliferation in the absence of drug post-treatment were assessed.

[5] = system: A2780 ovarian cancer cells; assay: RNA disruption in drug-treated A2780 cells (Agilent Bioanalyzer electropherogram, RDI); format: cell-based, human
Method: RNA was isolated from ovarian cancer cell line A2780 cells which had been treated with 10 μM docetaxel in 50% media or 20 μM epirubicin, each in 50% media. Cells were treated with the chemotherapeutic for 24 hours at 37° C. Isolated RNA was separated by microcapillary electrophoresis using the Agilent 2100 Bioanalyzer.
Cells were plated and treated with docetaxel concentrations ranging from 0.001-40 μM for 24 to 72 hours to assess the effect on cell number, RNA content, and integrity (measured using a Bioanalyzer 2100 from Agilent Technologies, Inc.).
A2780 cells treated for up to 72 hours with docetaxel at 0.005 uM and 0.2 uM, were analyzed for the amount of RNA per cell. RNA was isolated and electophoretically separated using an Agilent Bioanalyzer.
RNA was isolated and electrophoretically separated on an Agilent Bioanalyzer. As shown in FIG. 24D bands appeared just below the 28S (e.g. intermediate) and 18S bands (e.g. low banding region) at 0.005 uM and peaked at 0.2 uM.
A time course experiment was conducted in A2780 cells. Cells were treated for up to 72 hours with docetaxel at 0.005 uM and 0.2 uM. RNA was isolated and run on an Agilent Bioanalyzer.
The effect of a caspase inhibitor on RNA integrity changes was next assessed. Cells were treated with or without docetaxel at a concentration of 0.2 uM in the presence or absence of the caspase inhibitor Q-DEVD-OPH (Biovision Laboratories) at a concentration of 10 uM.

[6] = system: Jurkat leukemia cell line; assay: Docetaxel-induced RNA disruption, Jurkat; format: cell-based
A2780 cells = assay: Cell counts and Recovery Assay of A2780 cells after docetaxel

IC50 [1]: ~650 nM
SMILES: CC(=O)O[C@@]12CO[C@@H]1C[C@H](O)[C@@]1(C)C(=O)[C@H](O)C3=C(C)[C@@H](OC(=O)[C@H](O)[C@@H](NC(=O)OC(C)(C)C)c4ccccc4)C[C@@](O)([C@@H](OC(=O)c4ccccc4)[C@H]21)C3(C)C [docetaxel]
IC50 (parental A2780 cells): ~1.1 nM
docetaxel-induced RNA disruption [2]: RNA disruption was also observed
RNA disruption / banding below 28S and 18S [3]: no banding is evident; also recorded: did not result in RNA disruption; also recorded: do not show docetaxel-induced RNA disruption
Annexin V-FITC binding [4]: enhance Annexin V-FITC binding to cells
DNA laddering [4]: no DNA laddering was observed
PARP cleavage [4]: induce the cleavage of poly ADP ribose polymerase (PARP)
cellular DNA content [4]: generate cells containing a sub-G1 level of DNA content
cellular caspase activity [4]: activated cellular caspase activity
membrane integrity (propidium iodide staining) ([4]; after drug-treatment): lack of propiclium iodide staining
amount of RNA per cell ([5]; 0.005 uM and 0.2 uM, up to 72 hours): increase in a time-dependent and dose-dependent manner
electropherogram pattern ([5]; 10 μM in 50% media, 24 hours, 37° C.): an intermediate peak and a peak adjacent to the 18S peak
RDI ([5]; 0.2 micromolar, 72 hrs, 0.23 prior to drug): 3.09
RNA concentration ([5]; 0.2 micromolar, 72 hrs, 1220 prior to drug): about 359 ng/microliter
concentration at which the novel banding peaked ([5]; 24 hours): 0.2 µM
ratio of Low C Area/(28S+18S) ([5]; after 72 hr, little change at 8, 24 or 48 hr): dramatic increase
RIN ([5]; concentrations ≥0.005 uM): did not change significantly
concentration giving reductions in cell number and RIN and increased RDI ([5]; dose and time-dependent): ≥ 0.1 µM
response of cells in culture to the agent ([5]; dose- and time-dependent): RNA disruption
docetaxel-induced RNA disruption [6]: RNA disruption was also observed
recovery in drug-free media (A2780 cells; 5 nM): permitted cell recovery, but only when the incubation period was 48 hours or less
recovery in drug-free media (A2780 cells; 0.2 uM for up to 72 hours, washed and replated): No resumption of cell proliferation
concentrations at which cell numbers remained constant (A2780 cells; up to 72 hours): greater than or equal to 0.005 uM
